Measured values reported in patent US8835440B2, “Cyclic pyrimidin-4-carboxamides as CCR2 receptor antagonists for treatment of inflammation, asthma and COPD” (Boehringer Ingelheim International GmbH, priority 2008, dated 2014).

Molecular target: T1, CCR2 (Homo sapiens, UniProt P41597)
T1 construct: Membranes were prepared from THP-1 cells; endogenous in cells; host or cells: THP-1 cells (membrane preparation)
T1 sequence (P41597 1-360 isoform P41597-2): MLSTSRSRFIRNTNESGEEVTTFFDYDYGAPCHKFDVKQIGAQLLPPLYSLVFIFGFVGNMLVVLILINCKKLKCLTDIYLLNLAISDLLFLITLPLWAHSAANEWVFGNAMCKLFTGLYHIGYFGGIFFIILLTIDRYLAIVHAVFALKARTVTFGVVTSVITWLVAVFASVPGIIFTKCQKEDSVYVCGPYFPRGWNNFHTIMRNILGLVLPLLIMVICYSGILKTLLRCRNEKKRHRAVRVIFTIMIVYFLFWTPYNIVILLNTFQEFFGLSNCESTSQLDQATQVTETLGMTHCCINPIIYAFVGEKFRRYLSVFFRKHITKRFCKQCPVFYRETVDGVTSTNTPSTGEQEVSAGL
Assay: CCR2 receptor membrane binding assay ([125I]MCP-1, THP-1 cell membranes, SPA beads)
Settings: for remaining activity at 10 µM: read-out: CCR2 % ctrl @ 10 μM; for Ki: dissociation constant hKi, [125I]MCP-1 binding to THP-1 membranes
Method in brief: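 Human THP-1 monocytic cell membranes, pre-coupled to WGA-PVT SPA beads, were incubated with compound and [125I]MCP-1 (ca. 25000 cpm) in 25 mM HEPES pH 7.2, 5 mM MgCl2, 0.5 mM CaCl2, 0.2% BSA, at 1% DMSO final. Bound radioactivity was counted after 8 h, and Ki was obtained by iterative mass-action fitting.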

[1] = @ 10 μM test compound, THP-1 membranes

Row | Structure (SMILES) | remaining activity at 10 µM [1] | Ki | CCR2 % ctrl @ 10 μM (@ 10 μM test compound, THP-1 membranes, 10 µM)
1 | CCS(=O)(=O)N(C)C1CCN(C2CCN(C(=O)c3ncnc(NC[C@@H]4C[C@H]4c4ccccc4)c3C)CC2)CC1 [Example 147] | 8% | 0.04 µM | –
2 | COC1CN(C(=O)c2ncnc(NCc3ccc(C(C)(C)C)cc3)c2C)CCC1N1CCC(N(C)S(C)(=O)=O)CC1 (stereo not drawn) [Example 263] | 27% | 1.97 µM | –
3 | Cc1c(NCc2ccc(C(C)(C)C)cc2)ncnc1C(=O)N1CCC(N2CCOC(C)C2)CC1 (stereo not drawn) [Example 209] | 7% | 0.177 µM | –
4 | Cc1c(NCc2ccc(-c3ccccc3)o2)ncnc1C(=O)N1CCC(N2CCC(N(C)S(C)(=O)=O)CC2)CC1 [Example 159u] | – | 0.029 µM | –
5 | Cc1c(NCCc2ccc(Cl)c(Cl)c2)ncnc1C(=O)N1CCC(N2CC[C@H](O)C2)CC1 [Example 166] | 16% | 0.227 µM | –
6 | CO[C@@H]1COCC[C@@H]1NC1CCN(C(=O)c2nc(C)nc(NC[C@H]3C[C@H](c4ccccc4)C3)c2C)CC1 [Example 275de] | – | 0.016 µM | –
7 | Cc1c(NCc2ccc(Cl)c(Cl)c2)ncnc1C(=O)N1CCC(N2CCC(NC(N)=O)CC2)CC1 [Example 187] | 15% | 0.256 µM | –
8 | Cc1c(Cc2ccc(C(C)(C)C)cc2)ncnc1C(=O)N1CCC(N2CCC(N(C)S(C)(=O)=O)CC2)CC1 [Example 268] | 5% | 0.119 µM | –
9 | Cc1cc(CNc2ncnc(C(=O)N3CCC(N4CCC(N(C)S(C)(=O)=O)CC4)CC3)c2C)ccc1F [Example 55] | 17% | 0.2 µM | –
10 | Cc1c(NCC2CCCC(c3ccc(F)cc3)C2)ncnc1C(=O)N1CCC(N2CCC(NS(C)(=O)=O)CC2)CC1 (stereo not drawn) [Example 159ba] | – | 0.011 µM | –
11 | Cc1c(NCc2ccc(C(C)(C)C)cc2)ncnc1C(=O)N1CCC(N2CCC(c3ccc(C#N)cc3)CC2)CC1 [Example 228gk] | – | 0.044 µM | –
12 | Cc1c(NC[C@H]2C[C@H](c3ccccc3)C2)ncnc1C(=O)N1CCC(N2CCC(N(C)S(C)(=O)=O)CC2)CC1 [Example 159ub] | – | 0.018 µM | –
13 | Cc1c(NCc2ccc(Cl)c(Cl)c2)ncnc1C(=O)N1CCC(N2CCCC(F)C2)CC1 (stereo not drawn) [Example 233] | 8% | 0.194 µM | –
14 | Cc1c(NCC2CCCOC2)ncnc1C(=O)N1CCC(N2CCC(N(C)S(C)(=O)=O)CC2)CC1 (stereo not drawn) [Example 159bc] | – | 3.49 µM | –
15 | CN(C1CCN(C2CCN(C(=O)c3ncnc(NCc4ccc(C(C)(C)C)cc4)c3C#N)CC2)CC1)S(C)(=O)=O [Example 249] | 36% | 3.25 µM | –
16 | Cc1c(NCC2CCC(c3ccc(Cl)cc3)C2)ncnc1C(=O)N1CCC(N2CCC(N(C)S(C)(=O)=O)CC2)CC1 (stereo not drawn) [Example 159c] | – | 0.013 µM | –
17 | COC1CCN(C2CCN(C(=O)c3ncnc(NCC4CCCN(c5ccccc5)C4)c3C)CC2)CC1 (stereo not drawn) [Example 97] | 17% | 0.665 µM | –
18 | Cc1c(NCC2CCCN(c3ccccc3)C2)ncnc1C(=O)N1CCC(N2CCOCC2)CC1 (stereo not drawn) [Example 42] | 16% | 0.433 µM | –
19 | CNS(=O)(=O)C1CCN(C2CCN(C(=O)c3nc(C)nc(NCc4ccc(C(C)(C)C)cc4)c3C)CC2)CC1 [Example 262] | 13% | 0.224 µM | –

Row | Structure (SMILES) | remaining activity at 10 µM [1] | Ki | CCR2 % ctrl @ 10 μM (@ 10 μM test compound, THP-1 membranes, 10 µM)
20 | Cc1c(NCCc2ccc(C(C)C)cc2)ncnc1C(=O)N1CCC(N2CCC(O)CC2)CC1 [Example 106] | 13% | 0.405 µM | –
21 | Cc1c(NCC2CCc3ccccc3C2)ncnc1C(=O)N1CCC(N2CCC(N(C)S(C)(=O)=O)CC2)CC1 (stereo not drawn) [Example 159pb] | – | 0.01 µM | –
22 | Cc1c(NCc2ccc(C(C)(C)C)cc2)ncnc1C(=O)N1CCC(N(C)C2CCC(F)(F)CC2)CC1 [Example 275d] | 10% | 0.318 µM | –
23 | Cc1c(OCc2ccc(C#N)cc2)ncnc1C(=O)N1CCC(N2CCC(N(C)S(C)(=O)=O)CC2)CC1 [Example 293] | 27% | 0.717 µM | –
24 | Cc1c(NCc2cnc3ccccc3c2)ncnc1C(=O)N1CCC(N2CCC(N(C)S(C)(=O)=O)CC2)CC1 [Example 157] | 23% | 1.15 µM | –
25 | Cc1ccc(C2CCCC(CNc3ncnc(C(=O)N4CCC(N5CCC(N(C)S(C)(=O)=O)CC5)CC4)c3C)C2)cc1 (stereo not drawn) [Example 159za] | – | 0.006 µM | –
26 | Cc1c(NCc2ccc(C(C)(C)C)cc2)ncnc1C(=O)N1CCC(N(C)C2CC(C)OC(C)C2)CC1 (stereo not drawn) [Example 275c] | 38% | 2.93 µM | –
27 | Cc1c(NCCc2ccc(Cl)c(Cl)c2)ncnc1C(=O)N1CCC(N2CCCC(O)CC2)CC1 (stereo not drawn) [Example 247] | 6% | 0.149 µM | –
28 | Cc1c(NC2CCC(c3ccccc3)CC2)ncnc1C(=O)N1CCC(N2CCC(O)CC2)CC1 (stereo not drawn) [Example 22] | 24% | 0.466 µM | –
29 | Cc1c(NCC2CCC(C)C2)ncnc1C(=O)N1CCC(N2CCC(N(C)S(C)(=O)=O)CC2)CC1 (stereo not drawn) [Example 159bb] | – | 0.048 µM | –
30 | Cc1c(NCc2ccc(C(C)(C)C)cc2)ncnc1C(=O)N1CCC(N2CCOCC2)CC1 [Example 52] | 12% | 0.175 µM | –
31 | Cc1c(NCc2ccc(C(C)(C)C)cc2)ncnc1C(=O)N1CCC(NCC2CCCCO2)CC1 (stereo not drawn) [Example 228gh] | – | 4.07 µM | –
32 | Cc1c(NCc2ccc(C(C)(C)C)cc2)ncnc1C(=O)N1CCC(N2CCC(NS(=O)(=O)C(C)C)CC2)CC1 [Example 205] | 11% | 0.135 µM | –
33 | Cc1ccc(CNc2ncnc(C(=O)N3CCC(N4CCOCC4)CC3)c2C)cc1F [Example 44] | 27% | 1.64 µM | –
34 | Cc1ccc(C2CCC(CNc3ncnc(C(=O)N4CCC(N5CCC(N(C)S(C)(=O)=O)CC5)CC4)c3C)O2)cc1F (stereo not drawn) [Example 159na] | – | 0.021 µM | –
35 | COCCN(C)C1CCN(C(=O)c2ncnc(NCc3ccc(Cl)c(Cl)c3)c2C)CC1 [Example 181] | 58% | 3.61 µM | –
36 | Cc1c(NCCOCc2ccccc2)ncnc1C(=O)N1CCC(N2CCC(O)CC2)CC1 [Example 18] | 52% | 3.5 µM | –
37 | COc1nc(OCC2CCCC(c3ccccc3)C2)c(C)c(C(=O)N2CCC(N3CCC(N(C)S(C)(=O)=O)CC3)CC2)n1 (stereo not drawn) [Example 302] | – | 0.032 µM | –
38 | Cc1c(NCCCCc2ccccc2)ncnc1C(=O)N1CCC(N2CCC(O)CC2)CC1 [Example 15] | 14% | 0.2 µM | –

Row | Structure (SMILES) | remaining activity at 10 µM [1] | Ki | CCR2 % ctrl @ 10 μM (@ 10 μM test compound, THP-1 membranes, 10 µM)
39 | COc1ccc(CCNc2ncnc(C(=O)N3CCC(N4CCC(O)CC4)CC3)c2C)cc1Cl [Example 119] | – | 1.03 µM | 37 % ctrl
40 | Cc1ccc([C@H]2CC[C@@H](CNc3ncnc(C(=O)N4CCC(N5CCC(N(C)S(C)(=O)=O)CC5)CC4)c3C)O2)cc1 [Example 159jb] | – | 0.039 µM | –
41 | Cc1nc(NCC2Cc3ccccc3C2)c(C)c(C(=O)N2CCC(N3CCC(N(C)S(C)(=O)=O)CC3)CC2)n1 [Example 86] | 3% | 0.039 µM | –
42 | Cc1c(NCc2ccc(C(C)(C)C)cc2)ncnc1C(=O)N1CCC(N2CCC(Cc3cccnc3)C2)CC1 (stereo not drawn) [Example 228gf] | – | 0.145 µM | –
43 | Cc1c(NCc2ccc(C(C)(C)C)cc2)ncnc1C(=O)N1CCC(N2CC(C)OC(C)C2)CC1 (stereo not drawn) [Example 218] | 8% | 0.281 µM | –
44 | Cc1c(NCCc2cccc(Cl)c2)ncnc1C(=O)N1CCC(N2CCCCC2)CC1 [Example 139] | 9% | 0.443 µM | –
45 | Cc1c(NCCc2cn(C)c3ccccc23)ncnc1C(=O)N1CCC(N2CCC(N(C)S(C)(=O)=O)CC2)CC1 [Example 159y] | – | 0.169 µM | –
46 | Cc1c(NCc2cccc(-c3ccccc3)c2)ncnc1C(=O)N1CCC(N2CCCC(O)C2)CC1 (stereo not drawn) [Example 100] | 18% | 0.395 µM | –
47 | Cc1c(NCc2ccc(C(F)(F)F)c(Cl)c2)ncnc1C(=O)N1CCC(N2CCCCC2)CC1 [Example 133] | 15% | 0.205 µM | –
48 | Cc1c(NCc2ccc3occc3c2)ncnc1C(=O)N1CCC(N2CCC(O)CC2)CC1 [Example 29] | 40% | 2.1 µM | –
49 | Cc1c(NCCc2ccc(Cl)c(Cl)c2)ncnc1C(=O)N1CCC(N2CCCCC2)CC1 [Example 2] | 13% | 0.222 µM | –
50 | Cc1c(NC[C@@H]2CCN(c3ccccc3)C2)ncnc1C(=O)N1CCC(N2CCC(N(C)S(C)(=O)=O)CC2)CC1 [Example 149] | 10% | 0.041 µM | –
51 | Cc1c(NCC2CCCC(c3ccc(Cl)cc3)C2)ncnc1C(=O)N1CCC(N2CCC(NS(C)(=O)=O)CC2)CC1 (stereo not drawn) [Example 159ca] | – | 0.003 µM | –
52 | COc1nc(NCc2ccc(C(C)(C)C)cc2)c(C)c(C(=O)N2CCC(N3CCC(N(C)S(C)(=O)=O)CC3)CC2)n1 [Example 159b] | – | 0.007 µM | –
53 | Cc1c(NCC2CCCCC2)ncnc1C(=O)N1CCC(N2CCC(O)CC2)CC1 [Example 108] | 20% | 0.627 µM | –
54 | Cc1c(NCc2ccc(C(F)(F)F)c(Cl)c2)ncnc1C(=O)N1CCC(N2CCC(O)CC2)CC1 [Example 116] | 16% | 0.198 µM | –
55 | Cc1c(NCc2ccc(C(C)(C)C)cc2)ncnc1C(=O)N1CCC(NC2CCOc3cccnc32)CC1 (stereo not drawn) [Example 228gi] | – | 1.1 µM | –
56 | Cc1c(NCCc2ccc(Cl)c(Cl)c2)ncnc1C(=O)N1CCC(N2CCC[C@H](C(=O)O)C2)CC1 [Example 179] | 42% | 1.64 µM | –
